Results filed as inconclusive are left out. Active and inactive are the calls of the source. The rule behind the calls is not given here.
Target: Serine/threonine-protein kinase D1 (Homo sapiens) (UniProt Q15139)
Test: protein kinase D1 activity blockers – biochemical, fluorescence polarization, 140K library hits, repeat, confirmation (AID 1286)
Details: PKD1 kinase, at 10 µM, active compounds read high

Sequence of Serine/threonine-protein kinase D1 (Homo sapiens) (Q15139 whole entry, looked up): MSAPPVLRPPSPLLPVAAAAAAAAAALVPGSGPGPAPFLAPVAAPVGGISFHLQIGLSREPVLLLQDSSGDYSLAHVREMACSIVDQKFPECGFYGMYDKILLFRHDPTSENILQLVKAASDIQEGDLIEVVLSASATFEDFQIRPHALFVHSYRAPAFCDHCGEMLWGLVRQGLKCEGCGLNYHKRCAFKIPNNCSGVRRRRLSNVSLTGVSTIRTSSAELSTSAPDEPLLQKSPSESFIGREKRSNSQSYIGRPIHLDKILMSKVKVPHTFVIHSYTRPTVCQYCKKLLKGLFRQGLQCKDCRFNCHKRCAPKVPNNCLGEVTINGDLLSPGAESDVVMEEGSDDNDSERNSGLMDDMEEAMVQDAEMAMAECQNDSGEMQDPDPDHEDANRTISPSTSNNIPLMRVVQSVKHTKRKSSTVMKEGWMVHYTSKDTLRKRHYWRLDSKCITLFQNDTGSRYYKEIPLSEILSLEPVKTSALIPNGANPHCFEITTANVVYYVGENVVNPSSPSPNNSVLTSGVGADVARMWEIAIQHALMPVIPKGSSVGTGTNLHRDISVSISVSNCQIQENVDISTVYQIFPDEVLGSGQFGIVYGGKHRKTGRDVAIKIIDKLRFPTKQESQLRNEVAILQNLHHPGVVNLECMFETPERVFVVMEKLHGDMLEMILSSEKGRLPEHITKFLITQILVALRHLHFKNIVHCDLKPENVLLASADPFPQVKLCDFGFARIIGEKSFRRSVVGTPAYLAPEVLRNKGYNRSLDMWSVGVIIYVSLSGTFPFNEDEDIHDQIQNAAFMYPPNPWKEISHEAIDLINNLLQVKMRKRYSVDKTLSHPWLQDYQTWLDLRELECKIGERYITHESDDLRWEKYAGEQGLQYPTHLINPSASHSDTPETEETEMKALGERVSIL

Row | Compound | inhibition
1 | O=C1CCCc2c1cc(C(=O)NCc1ccco1)c(=O)n2-c1ccccc1 | -5.46% (inactive)
2 | Cc1occc1C(=O)NC(C)CCc1ccccc1 (stereo unspecified) | -0.529% (inactive)
3 | COc1ccccc1/C=C1\SC(=S)N(CCC(=O)NC2=NCCS2)C1=O | -0.701% (inactive)
4 | Cc1cc(N=CC2=C(O)CC(C)(C)CC2=O)no1 | -1.85% (inactive)
5 | O=C(Nc1ccsc1C(=O)NC1CC1)c1ccccc1 | 9.43% (inactive)
6 | CC1CCCC(C)N1C(=O)Cn1cc(/C=C2/C(=O)Nc3ccccc32)c2ccccc21 (stereo unspecified) | 2.88% (inactive)
7 | CCn1c(CSc2ncccn2)nnc1SCC(=O)N1CCc2ccccc21 | -1.28% (inactive)
8 | CCOC(=O)N1CCN(c2cc(NCCC(=O)O)c3c4c(onc24)-c2ccccc2C3=O)CC1 | 3.06% (inactive)
9 | CC(=O)Nc1ccc2c(c1)c1ccccc1n2C(C)=O | 14.5% (inactive)
10 | CCC1=NNc2cccc3c(OC)ccc1c23 | 89.7%
11 | Cc1c(N/N=C(\C#N)C(=O)c2ccccc2)c(=O)n(-c2ccccc2)n1C | 12.8% (inactive)
12 | Cn1c(=O)oc2cc(S(=O)(=O)N3CCN(Cc4ccc5c(c4)OCO5)CC3)ccc21 | -1.91% (inactive)
13 | Cc1ccc(C(=O)NNC2=Nc3cccc4cccc2c34)cc1 | 6.45% (inactive)
14 | Cc1cc2nc3c(=O)n(C4CCCCC4)c(=O)[nH]c3nc2cc1N | 21.6% (inactive)
15 | CS(=O)(=O)N1CCN(c2ccc(NC(=O)c3ccc(Br)o3)cc2)CC1 | -7.85% (inactive)
16 | c1ccc(-c2n[nH]c3ccccc23)cc1 | 11.3% (inactive)
17 | CN1CCN(c2cccc3c2C(=O)c2ccccc2C3=O)CC1 | 34.4% (inactive)
18 | CN1CCN(c2ccccc2NC(=O)c2ccc(-c3cccc([N+](=O)[O-])c3)o2)CC1 | 7.36% (inactive)
19 | O=C(CN1CCCC1)Nc1c2c(nc3ccccc13)N(Cc1ccccc1)CC2 | -4.44% (inactive)
20 | Cc1c(C(=O)N/N=C/c2ccc(O)c(Br)c2)sc(N)c1C#N | 44.5% (inactive)
21 | CCOC(=O)N1CCC(NS(=O)(=O)c2cc(Br)cc3c2N(C(=O)CC)CC3)CC1 | -5.57% (inactive)

Row | Compound | inhibition
22 | Cn1c(OCc2cccnc2)nc2c1c(=O)n(Cc1ccc(Br)cc1)c(=O)n2C | -0.468% (inactive)
23 | O=C1c2ccccc2-c2onc3ccc(NCc4ccco4)c1c23 | 32.1% (inactive)
24 | Nc1nc2ccccc2n1/N=C/c1ccc([N+](=O)[O-])s1 | 34.7% (inactive)
25 | CCOC(=O)c1cccc(NC(=O)CCS(=O)(=O)c2cccc3nsnc23)c1 | 28.8% (inactive)
26 | Cc1nn(C)c(C)c1N1C(=O)c2cccc3c(N)ccc(c23)C1=O | 46.3% (inactive)
27 | COc1cc2c(cc1OC)-c1c(OC)c(OC)c(OC)c3ccnc(c13)C2=O | 10.4% (inactive)
28 | O=C(O)C1CCN(c2ncccn2)CC1 | -5.12% (inactive)
29 | COc1ccc2nc3sc(C(=O)NCCCN4CCc5ccccc5C4)cc3cc2c1 | 7.3% (inactive)
30 | CN(C)c1ccc(/C=C2\SC(=S)N(Nc3ncc(C(F)(F)F)cc3Cl)C2=O)cc1 | 4.05% (inactive)
31 | COc1ccc(S(=O)(=O)N2CCC(n3cnc4cc(C(F)(F)F)ccc43)CC2)cc1 | 20.8% (inactive)
32 | COc1ccc(-c2cnnc(N/N=C/c3ccc(O)c(O)c3)n2)cc1 | 3.96% (inactive)
33 | Cn1c(=O)c(NCCO)c2c3c(cccc31)C(=O)c1ccccc1-2 | 95.8%
34 | Cc1ccc(C(=O)Cn2c(NCCO)nc3ccccc32)cc1 | -5.32% (inactive)
35 | CCCNC(=O)CN(c1ccc(F)cc1)S(=O)(=O)c1ccc2c(c1)OCCO2 | -8.66% (inactive)
36 | O=C(Nc1ccccc1)ON=C1c2ccccc2-c2ccccc21 | 17.2% (inactive)
37 | Nc1nc2ccc([N+](=O)[O-])c(N)c2s1 | 69.9%
38 | Cc1cc(NCCCN)nc(-c2ccccc2O)n1 | 59.5%
39 | CN(C)CCOc1ccc2c(c1)Sc1ccccc1CC2=O | 8.37% (inactive)
40 | Clc1cncc(Cl)c1N/N=C/c1ccncc1 | 77.4%
41 | Cc1ccc(NC(=O)CNc2ccc(Cl)cc2F)cc1 | 0.85% (inactive)
42 | COCC(C)n1c(C)cc(C(=O)COC(=O)c2nc3nc(C)cc(C)n3n2)c1C (stereo unspecified) | -2.8% (inactive)

Row | Compound | inhibition
43 | COc1ccc(Nc2cc(C)nc(-n3nc(C)cc3C)n2)cc1 | 3.67% (inactive)
44 | NC(=NCCc1c[nH]c2ccccc12)NS(=O)(=O)c1cc(F)ccc1F | 2.31% (inactive)
45 | C=CCn1c(SC(C)C(=O)NCc2ccc3c(c2)OCO3)nnc1C1CCCCC1 (stereo unspecified) | -1.58% (inactive)
46 | O=C(Nc1ccccc1Cl)ON=C1c2ccccc2-c2ccccc21 | 14.4% (inactive)
47 | O=C(NCCOC(=O)c1ccc(C(=O)OCCNC(=O)c2cccnc2)s1)c1cccnc1 | -5.26% (inactive)
48 | O=C(Nc1ccc(CN2CCOCC2)cc1)c1ccc(-c2cccc(Cl)c2)o1 | 52.6%
49 | CCN(CC)c1ccc(NC(=O)COc2ccccc2C#N)cc1S(=O)(=O)Nc1ccc(OC)cc1 | -2.22% (inactive)
50 | CCC(=O)Nc1c2c(nn1-c1ccccc1C)CSC2 | 58.1%
51 | CC(=O)Oc1cc(OC(C)=O)c2c(C)cc(=O)oc2c1 | 68.1%
52 | CC(OC(=O)c1ccc(NS(=O)(=O)c2cccs2)cc1)C(=O)N(C)C1CCCCC1 (stereo unspecified) | -4.35% (inactive)
53 | Nc1nnc(SCCCC(=O)c2ccc(F)cc2)s1 | 26.1% (inactive)
54 | CCOc1cccc(C2C(C(=O)c3ccc(C)o3)=C(O)C(=O)N2c2nccs2)c1 (stereo unspecified) | 73.4%
55 | Cc1ccc(NC(=O)C2CCCN(S(=O)(=O)c3c(C)noc3C)C2)c(C)c1 (stereo unspecified) | -2.05% (inactive)
56 | Cc1cc(Nc2cccc(F)c2)nc(NCc2ccccc2)n1 | 1.99% (inactive)
57 | O=C1CC(N2CCN(c3ccccc3Cl)CC2)C(=O)N1c1ccc(F)cc1 (stereo unspecified) | -3.22% (inactive)
58 | COC(=O)c1cccc2c1-c1ccccc1/C2=N/O | 19.8% (inactive)
59 | Cc1[nH]nc2c1-c1nc3ccccc3nc1C(C)(C)C2 | 40% (inactive)
60 | CS(=O)(=O)N1CCN(c2ccccc2NC(=O)c2ccc(Br)o2)CC1 | 96.2%
61 | CCOC(=O)N1CCC(N2CCN(S(=O)(=O)CC)CC2)CC1 | -3.7% (inactive)
62 | COc1cc(C2=NOC(C(=O)NCc3ccco3)C2)cc(OC)c1OC (stereo unspecified) | -3.78% (inactive)
63 | O=C1CC(N2CCN(c3ccccc3Cl)CC2)C(=O)N1c1cccc(F)c1 (stereo unspecified) | -6.73% (inactive)

Row | Compound | inhibition
64 | NC(=O)c1cn(C2OC(CO)C(O)C2O)c2ncnc(N)c12 (stereo unspecified) | 90.3%
65 | Clc1ccc(Nc2ccc(-n3ccnc3)nn2)cc1Cl | -1.8% (inactive)
66 | COc1ccc(C2C(C(=O)c3cccs3)=C(O)C(=O)N2c2nncs2)cc1 (stereo unspecified) | 35.1% (inactive)
67 | O=C1NCCCc2c1oc1ccc(O)cc21 | 96.2%
68 | Nc1nc2ccccc2n1/N=C/c1cccnc1 | 36.4% (inactive)
69 | NC(N)=NC(=O)c1nc(Cl)c(N)nc1N | 58.6%
70 | O=C1Nc2ccccc2/C1=C/c1cnc[nH]1 | 28.3% (inactive)
71 | Cc1c(N/N=C(\C#N)C(=O)c2ccc(Cl)cc2)c(=O)n(-c2ccccc2)n1C | 18% (inactive)
72 | COc1ccccc1C(=O)NN1C(=O)C2C3C=CC(O3)C2C1=O (stereo unspecified) | -0.477% (inactive)
73 | CCOC(=O)c1[nH]c2cc(OC)c(OC)cc2c1NC(=O)CN1CCN(C)CC1 | 3.12% (inactive)
74 | O=C(Nc1cccc([N+](=O)[O-])c1)C12CC3CC(C1)CC(n1cnc([N+](=O)[O-])n1)(C3)C2 | -4.73% (inactive)
75 | CC(C)CCN1CN(S(=O)(=O)c2cccs2)c2nc3ccccc3nc21 | -0.214% (inactive)
76 | Cn1c(=O)[nH]c(=O)c2c1nc(NC1CCCCC1)n2CC(=O)NC1CCCCC1 | -11.5% (inactive)
77 | O=C(c1cc(-c2ccccc2)nc2ccccc12)N1CCN(c2ccccn2)CC1 | 0.468% (inactive)
78 | Cc1c(C(=O)NCc2cccnc2)sc2nc(-c3ccc(F)cc3)cn12 | -3.04% (inactive)
79 | CCCCn1c(=O)[nH]c2nc3cc(N)ccc3nc2c1=O | 31.1% (inactive)
80 | COC(=O)c1ccccc1OCC(=O)NC1CCCCC1 | -3.26% (inactive)
81 | O=C(Nc1ccc(Cl)cc1)OCc1cn(-c2ccc(Cl)cc2)nn1 | -2.52% (inactive)

Reference: PubChem BioAssay AID1286 (University of Pittsburgh Molecular Library Screening Center, 2008)
